From patent US8017773B2, “Cyclohexyl sulfonamide derivatives” (Hoffmann-La Roche Inc., priority 2006, dated 2011)

Each molecule was assayed against T1, histamine 3 receptor (H3R) (Homo sapiens, UniProt Q9Y5N1) (assay: Binding assay with 3H-(R)α-methylhistamine, competition binding on membranes of the human HR3-CHO cell line). Settings: 3H(R)α-Methylhistamine 1 nM, Ki calculated from IC50 by Cheng-Prusoff.
T1 construct: expressed in transfected cells; host or cells: CHO cells (HR3-CHO), membrane preparation
T1 sequence (Q9Y5N1 whole entry): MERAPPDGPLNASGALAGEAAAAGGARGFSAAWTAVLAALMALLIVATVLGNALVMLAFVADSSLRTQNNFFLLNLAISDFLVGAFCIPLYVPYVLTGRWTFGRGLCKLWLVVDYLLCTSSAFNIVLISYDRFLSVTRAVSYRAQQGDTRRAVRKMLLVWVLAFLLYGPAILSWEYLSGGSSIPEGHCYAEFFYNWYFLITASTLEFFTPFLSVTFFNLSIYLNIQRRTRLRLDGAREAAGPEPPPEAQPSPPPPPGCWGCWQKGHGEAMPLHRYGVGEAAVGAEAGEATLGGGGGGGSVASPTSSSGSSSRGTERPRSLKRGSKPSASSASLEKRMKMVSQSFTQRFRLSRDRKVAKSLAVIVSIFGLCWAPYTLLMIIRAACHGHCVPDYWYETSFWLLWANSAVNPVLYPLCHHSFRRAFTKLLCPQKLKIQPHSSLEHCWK
Method: Binding Assay with ^3H-(R)α-methylhistamine
Saturation binding experiments were performed using HR3-CHO membranes prepared as described in Takahashi, K, Tokita, S., Kotani, H. (2003) J. Pharmacol. Exp. Therapeutics 307, 213-218.
An appropriate amount of membrane (60 to 80 μg protein/well) was incubated with increasing concentrations of ^3H(R)α-Methylhistamine di-hydrochloride (0.10 to 10 nM). Non specific binding was determined using a 200 fold excess of cold (R)α-Methylhistamine dihydrobromide (500 nM final concentration). The incubation was carried out at room temperature (in deep-well plates shaking for three hours). The final volume in each well was 250 μl. The incubation was followed by rapid filtration on GF/B filters (pre-soaked with 100 μl of 0.5% PEI in Tris 50 mM shaking at 200 rpm for two hours). The filtration was made using a cell-harvester and the filter plates were then washed five times with ice cold washing buffer containing 0.5 M NaCl. After harvesting, the plates were dried at 55° C. for 60 min, then we added scintillation fluid (Microscint 40, 40 microl in each well) and the amount of radioactivity on the filter was determined in Packard top-counter after shaking the plates for two hours at 200 rpm at room temperature.
Binding Buffer: 50 mM Tris-HCl pH 7.4 and 5 mM MgCl2×6H2O pH 7.4. Washing Buffer: 50 mM Tris-HCl pH 7.4 and 5 mM MgCl2×6H2O and 0.5 M NaCl pH 7.4.
Indirect measurement of affinity of H3R inverse agonists: twelve increasing concentrations (ranging from 10 μM to 0.3 nM) of the selected compounds were always tested in competition binding experiments using membrane of the human HR3-CHO cell line. An appropriate amount of protein, e.g. approximately 500 cpm binding of RAMH at Kd, were incubated for 1 hour at room temperature in 250 μl final volume in 96-well plates in presence of ^3H(R)α-Methylhistamine (1 nM final concentration=Kd). […]
All compounds were tested at a single concentration in duplicates. […] Ki's were calculated from IC50 based on Cheng-Prusoff equation (Cheng, Y, Prusoff, W H (1973) Biochem Pharmacol 22, 3099-3108).
Work on CCCS(=O)(=O)N[C@H]1CC[C@H](C(=O)N2CCN(C(C)C)CC2)CC1 [Example 1, N-{trans-4-[(4-isopropylpiperazin-1-yl)carbonyl]cyclohexyl}propane-1-sulfonamide] yielded a Ki of 54.8 nM. With COc1ccc(S(=O)(=O)N[C@H]2CC[C@H](C(=O)N3CCN(C(C)C)CC3)CC2)c(OC)c1 [Example 15, N-{trans-4-[(4-isopropyl-piperazin-1-yl)carbonyl]-cyclohexyl}-2,4-dimethoxy-benzenesulfonamide] the Ki was 23.4 nM. CC(C)N1CCN(C(=O)[C@H]2CC[C@H](N(C(C)C)S(=O)(=O)c3ccc(F)c(Cl)c3)CC2)CC1 [Example 64, 3-chloro-4-fluoro-N-isopropyl-N-[trans-4-(4-isopropyl-piperazine-1-carbonyl)-cyclohexyl]-benzenesulfonamide] was tested, and the Ki was 8.9 nM.
